Legend:
[1] = Effect on RET protein level in mouse BaF3 cells stably expressing wildtype KIF5B-RET assessed as fold change at 100 nM measured after 6 hrs by Western blot analysis (reference value: 1); type: functional
[2] = Effect on RET protein level in mouse BaF3 cells stably expressing KIF5B-RET-V804M mutant assessed as fold change at 300 nM measured after 6 hrs by Western blot analysis (reference value: 1); type: functional
[3] = Effect on RET protein level in mouse BaF3 cells stably expressing KIF5B-RET-G810C mutant assessed as fold change at 100 nM measured after 6 hrs by Western blot analysis (reference value: 1); type: functional
[4] = Effect on Shc protein level in mouse BaF3 cells stably expressing KIF5B-RET-G810C mutant assessed as fold change at 33.3 nM measured after 6 hrs by Western blot analysis (reference value: 1); type: functional
[5] = Effect on Shc protein level in mouse BaF3 cells stably expressing KIF5B-RET-G810C mutant assessed as fold change at 300 nM measured after 6 hrs by Western blot analysis (reference value: 1); type: functional
[6] = Effect on RET protein level in mouse BaF3 cells stably expressing KIF5B-RET-G810R mutant assessed as fold change at 300 nM measured after 6 hrs by Western blot analysis (reference value: 1); type: functional
[7] = Induction of apoptosis in mouse BaF3 cells stably expressing wildtype KIF5B-RET fusion protein assessed as early apoptotic cells at 11.1 nM measured after 48 hrs by Annexin V-FITC/7-AAD staining based flow cytometric analysis (reference value: 9.92 %); type: functional
[8] = Induction of apoptosis in mouse BaF3 cells stably expressing wildtype KIF5B-RET fusion protein assessed as late apoptotic cells at 11.1 nM measured after 48 hrs by Annexin V-FITC/7-AAD staining based flow cytometric analysis (reference value: 1.03 %); type: functional
[9] = Induction of apoptosis in mouse BaF3 cells stably expressing wildtype KIF5B-RET fusion protein assessed as late apoptotic cells at 33.3 nM measured after 48 hrs by Annexin V-FITC/7-AAD staining based flow cytometric analysis (reference value: 1.03 %); type: functional
[10] = Induction of apoptosis in mouse BaF3 cells stably expressing wildtype KIF5B-RET fusion protein assessed as late apoptotic cells at 100 nM measured after 48 hrs by Annexin V-FITC/7-AAD staining based flow cytometric analysis (reference value: 1.03 %); type: functional
[11] = Induction of apoptosis in mouse BaF3 cells stably expressing wildtype KIF5B-RET fusion protein assessed as necrotic cells at 100 nM measured after 48 hrs by Annexin V-FITC/7-AAD staining based flow cytometric analysis (reference value: 2.40 %); type: functional
[12] = Induction of apoptosis in mouse BaF3 cells stably expressing KIF5B-RET-G810C mutant assessed as late apoptotic cells at 33.3 nM measured after 48 hrs by Annexin V-FITC/7-AAD staining based flow cytometric analysis (reference value: 1.96 %); type: functional
[13] = Induction of apoptosis in mouse BaF3 cells stably expressing KIF5B-RET-G810C mutant assessed as viable cells at 300 nM measured after 48 hrs by Annexin V-FITC/7-AAD staining based flow cytometric analysis (reference value: 86.58 %); type: functional; settings: read-out: Activity
[14] = tested on: Kinesin-1 heavy chain/ Tyrosine-protein kinase receptor RET (Homo sapiens), P07949+P33176 [G810C]; assay: In vivo PROTAC activity at CRBN/KIF5B-RET-G810C mutant in male BALB/c mouse model implanted with mouse BaF3 cells stably expressing KIF5B-RET-G810C mutant assessed as induction of RET degradation in tumor at 10 mg/kg, ip measured after 3 days by Western blotting analysis relative to control; type: functional, organism-based; settings: time 3.0 day

With `COc1ccc(CN2C3CC2CN(c2ccc(-c4cc(-c5cnn(C6CCN(CCCCCC#Cc7cccc8c7CN(C7CCC(=O)NC7=O)C8=O)CC6)c5)cn5ncc(C#N)c45)cn2)C3)cn1` (centres undefined) the “fold change (FC)” value [1] was 0.3, the “fold change (FC)” value [2] was 0.1 and the “fold change (FC)” value [3] was 0.4. For the same compound, the “fold change (FC)” value [4] was 1, the “fold change (FC)” value [5] was 1 and the “fold change (FC)” value [6] was 0.6. The Activity [7] was 11.31%, the Activity [8] was 1.84% and the Activity [9] was 3.02%. For the same compound, the Activity [10] was 0.99%, the Activity [11] was 0.52% and the Activity [12] was 1.62%. For the same compound, the viability at 0.3 µM [13] was 63.1% and the Activity [14] was 47%.

— ChEMBL document CHEMBL6087474, “Discovery of an Efficacious RET PROTAC Degrader with Enhanced Antiproliferative Activity against Resistant Cancer Cells Harboring RET Solvent-Front Mutations” (J Med Chem, 2025)
